Measurements published in PubChem BioAssay (NCI).
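Test compounds were applied to cells in 96-well plates for 48 hours at 5 doses. GI50 = concentration required for 50% inhibition of growth. At the TGI there is no net growth.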

Legend:
Assay in all cases: DTP human tumour cell line panel, 48 h
LOX IMVI melanoma = tested on: LOX IMVI melanoma
786-0 renal = tested on: 786-0 renal
IGROV1 ovarian = tested on: IGROV1 ovarian
MDA-MB-435 = tested on: MDA-MB-435
NCI-H460 lung = tested on: NCI-H460 lung
COLO 205 colon = tested on: COLO 205 colon
MDA-MB-468 breast = tested on: MDA-MB-468 breast
UACC-62 melanoma = tested on: UACC-62 melanoma
T-47D breast = tested on: T-47D breast
HT29 colon = tested on: HT29 colon
CCRF-CEM leukemia = tested on: CCRF-CEM leukemia
OVCAR-3 ovarian = tested on: OVCAR-3 ovarian
SK-MEL-28 melanoma = tested on: SK-MEL-28 melanoma
HCT-116 colon = tested on: HCT-116 colon
EKVX NSCLC = tested on: EKVX NSCLC
RXF 393 renal = tested on: RXF 393 renal
DU-145 prostate = tested on: DU-145 prostate
A498 renal = tested on: A498 renal
BT-549 breast = tested on: BT-549 breast
SF-268 CNS = tested on: SF-268 CNS
UO-31 renal = tested on: UO-31 renal
U251 CNS = tested on: U251 CNS
SNB-75 CNS = tested on: SNB-75 CNS
HL-60(TB) leukemia = tested on: HL-60(TB) leukemia
OVCAR-4 ovarian = tested on: OVCAR-4 ovarian
SF-539 CNS = tested on: SF-539 CNS
OVCAR-5 ovarian = tested on: OVCAR-5 ovarian
TK-10 renal = tested on: TK-10 renal
OVCAR-8 ovarian = tested on: OVCAR-8 ovarian
SK-MEL-5 melanoma = tested on: SK-MEL-5 melanoma

## COc1cc2c(c(OC)c1OC)C(=O)CC(c1cccc(NC(=O)c3cc(NC(=O)[C@H](C)N)ccc3Cl)c1)O2 (some centres undefined)
LOX IMVI melanoma
  GI50: 14.5 µM
  TGI: 29.6 µM
786-0 renal
  GI50: 19.1 µM
  TGI: 36.7 µM
IGROV1 ovarian
  GI50: 16.6 µM
  TGI: 32.9 µM
MDA-MB-435
  GI50: 7.81 µM
  TGI: 21.4 µM
NCI-H460 lung
  GI50: 15.3 µM
  TGI: 30.6 µM
COLO 205 colon
  GI50: 17.1 µM
  TGI: 33.2 µM
MDA-MB-468 breast
  GI50: 13.5 µM
  TGI: 28.5 µM
UACC-62 melanoma
  GI50: 12.3 µM
  TGI: 24.9 µM
T-47D breast
  GI50: 8.07 µM
  TGI: 29 µM
HT29 colon
  GI50: 18.6 µM
  TGI: 37.2 µM
CCRF-CEM leukemia
  GI50: 18.5 µM
  TGI: 65 µM
OVCAR-3 ovarian
  GI50: 17.5 µM
  TGI: 46.7 µM
SK-MEL-28 melanoma
  GI50: 16.6 µM
  TGI: 30.2 µM
HCT-116 colon
  GI50: 17.5 µM
  TGI: 35.6 µM
EKVX NSCLC
  GI50: 17.2 µM
  TGI: 35 µM
RXF 393 renal
  GI50: 18.6 µM
  TGI: 37.1 µM
DU-145 prostate
  GI50: 17.5 µM
  TGI: 34.5 µM
A498 renal
  GI50: 26 µM
  TGI: 90.5 µM
BT-549 breast
  GI50: 15 µM
  TGI: 32 µM
SF-268 CNS
  GI50: 18 µM
  TGI: 42.8 µM
UO-31 renal
  GI50: 12 µM
  TGI: 24.7 µM
U251 CNS
  GI50: 13.9 µM
  TGI: 28 µM
SNB-75 CNS
  GI50: 13.3 µM
  TGI: 65.1 µM
HL-60(TB) leukemia
  GI50: 18.8 µM
  TGI: 37.5 µM
OVCAR-4 ovarian
  GI50: 15.6 µM
  TGI: 47 µM
SF-539 CNS
  GI50: 15.5 µM
  TGI: 28.8 µM
OVCAR-5 ovarian
  GI50: 18.3 µM
  TGI: 34.6 µM
TK-10 renal
  GI50: 19.8 µM
  TGI: 42.7 µM
OVCAR-8 ovarian
  GI50: 16.1 µM
  TGI: 41.7 µM
SK-MEL-5 melanoma
  GI50: 15.5 µM
